{"source": "patent US20040204482A1", "about": "“Extended release oral dosage form” (priority 2001, published 2004)", "origin": "cited, not measured here", "settings": "in vivo", "data": [{"smiles": "NC(=O)c1ccc(F)c2c1C[C@@H](N(C1CCC1)C1CCC1)CO2.O.O=C(O)C(O)C(O)C(=O)O", "note": "[(R)-3-N,N-dicyclobutylamino-8-fluoro-3,4-dihydro-2H-1-benzopyran-5-carboxamide hydrogen (2R,3R)-tartrate monohydrate]", "values": [{"measurement": "plasma elimination half-life, t1/2", "value": 1.5, "unit": "h"}]}]}
